Publication PMC10385664, “Projection of Target Drug Particle Size in Oral Formulations Using the Refined Developability Classification System (rDCS)” (Pharmaceutics, 2023)
Values joined by “and” are separate entries in the source; they are usually repeats but may differ in a detail not shown here. Equal values may be shown once.

What was measured:
[1] = Powder dissolution method for estimating IDR in FaSSIF V1; type: physicochemical; details: FaSSIF V1, 37 °C, 100 rpm
Experimental: Istradefylline disks could not be prepared because disk compression led to a change in solid state. The IDR of istradefylline was therefore measured (n = 4) according to a published powder dissolution method for estimating rotating disk IDRs. Istradefylline was weighed into an assay vial containing a magnetic crossbar stirrer, in an amount corresponding to approximately twice the amount needed to saturate the medium. The vials were placed in a heating block and 20 mL pre-heated FaSSIF V1 (37.0 ± 0.5 °C) was added to start the dissolution experiments. The medium was stirred at 100 rpm and concentrations were measured with in situ UV-spectroscopy using fiber optic dip probes until a plateau in the dissolution profile was reached. The vials were protected from light with aluminum foil during the entire experiment. […]
(§1) The concentration‐time curves for IDR determination were recorded with in situ UV‐spectroscopy using fiber optic dip probes. […] The buffer was stirred at 100 rpm and spectra were recorded approximately 1 minut e after addition of the stock solution. […]
(§2) Second derivatives of the UV spectra were used to establish the calibration curves. Multiple wavelength ranges were evaluated, and calibration curves were accepted for further investigation when linear […]

[2] = pKa by Fast UV spectrometric titration (SiriusT3); type: physicochemical; details: water/methanol mixtures; Yasuda–Shedlovsky extrapolation from water/methanol titrations, 25 °C; low absorbance, value to be treated with caution
Excerpt: A high-throughput spectrometric screening assay (Fast UV method) using the SiriusT3 (Pion Inc., Billerica, MA, USA) was applied. Samples were titrated under varying water/methanol ratios and apparent pKa values were extrapolated using the Yasuda–Shedlovsky extrapolation. The experimental details are provided in Supplementary Materials. Measured pKa values are presented as means (±SD) and were compared to literature values as well as in silico predictions using the software ADMET Predictor version 9 (Simulations Plus Inc., Lancaster, CA, USA) and ACD/Labs Release 2021.1.2 (Advanced Chemistry Development Inc., Toronto, ON, Canada). […]
r0 2 ∙ ρ ∙IDR∙Dose ൌ DF ∙ PefRsi ∙mdissolved (r0 < 30 μm, hparticle = r0) (S39) […]
spectrometric screening assay (Fast UV method) using an automated titrator system with an incorporated UV‐Vis spectrometer (SiriusT3, Pion Inc., Billerica, MA, USA). […] The pKa values were determined from three titrations with different water/methanol ratios and extrapolation of apparent pKa values in the presence of co‐solvents using the Yasuda‐Shedlovsky extrapolation. Measured pKa values are presented as means with standard deviation and were compared to literature va lues and predictions using the software ADMET Predictor

[3] = Disk intrinsic dissolution rate in FaSSIF V1 (µDISS Profiler); type: physicochemical; details: FaSSIF V1, 37 °C, 100 rpm
Experimental: The experimental design was adapted from a standard experimental protocol published previously. Disks (n = 3) with a surface area of 0.0707 cm^2 were prepared by compressing the APIs into disk dies. For this, 5 to 10 mg of the API was compressed for 1 min at 50 bar using a Mini-IDR Tablet Compression System (Heath Scientific Co. Ltd., Milton Keynes, UK). Loose powder on the disk surface or die was removed with compressed air. […] With the disk surface facing upwards, the dies were placed into round-shaped magnetic stirrers and transferred into 20 mL assay vials. The vials were placed in a heating block and pre-heated FaSSIF V1 (10 mL) was added to each vial to start the dissolution experiments. The disks were rotated at 100 rpm and concentrations were measured in situ with UV-spectroscopy using fiber optic dip probes. Experiments were performed in triplicate.
S.2.6. rDCS Customized Investigations: Intrinsic dissolution rate
as §1, §2

[4] = cited from earlier work

SMILES	IDR FaSSIF V1 (powder dissolution method) [1]	pKa [2]	IDR FaSSIF V1 (disk dissolution method) [3]	solubility at pH 1.0 [4]
CCn1c(=O)c2c(nc(/C=C/c3ccc(OC)c(OC)c3)n2C)n(CC)c1=O [Istradefylline, istradefylline]	0.302 ± 0.010 µg/min/cm^2 and 0.302 ± 0.010 ^3 µg/min/cm^2	–	–	–
Cc1ncc(OC[C@@]2(c3cccc(F)c3)C[C@H]2C(=O)Nc2ccc(F)cn2)c(C)n1 [Lemborexant, lemborexant]	–	2.18 ± 0.05	1.99 ± 0.09 µg/min/cm^2 and 1.99 ± 0.09 ^2 µg/min/cm^2	1.6 mg/mL
C[C@@H](c1ncncc1F)[C@](O)(Cn1cncn1)c1ccc(F)cc1F [Voriconazole, voriconazole]	–	–	84.8 ± 1.4 µg/min/cm^2 and 84.8 ± 1.4 ^2 µg/min/cm^2	–
